Experimental data: paper PMC7819857, “Identification of Inhibitors of Integrin Cytoplasmic Domain Interactions With Syk” (Frontiers in Immunology, 2021)

Key:
[1] = target: T1, integrin β1A cytoplasmic domain : GST-Syk(6-370) (Homo sapiens, UniProt P43405); assay: AlphaScreen of integrin β1A cytoplasmic domain binding to Syk; settings: read-out: antagonist activity against β1 (value without measure name), AlphaScreen
T1 construct: made in house; host or cells: E. coli BL21(DE3)
Procedure: (§1) The following HTS assay was developed to identify antagonists of the interaction between the integrin β3 cytoplasmic domain and the non-receptor tyrosine kinase Syk. […] ( Figure 1E ). Background signals in this assay were determined by omitting the integrin β3 peptide. Specific assay conditions are described in Table 1 . […] Then, either dimethyl sulfoxide control or compound was added, followed by biotinylated β3 peptide, and avidin-coated AlphaScreen donor beads. After a 4-h incubation period at room temperature (while protected from light), assays plates were read on an Infinite M1000 (Tecan) multiplate reader (Ex. 680/30; Em. 570/100).
(§2) Figure 4 Ceftazidime inhibition of integrin signaling. (A) Dose-response curves comparing ceftazidime antagonist activity against integrin β1A, β2, and β3 cytoplasmic domains binding to Syk as measured in AlphaScreen assays. […] Data are expressed as mean fluorescence (Fl520) ± the range from duplicate determinations. One of three experiments is shown. (B) Flow cytometric analysis of integrin α4β1, β2 subunit, αVβ3, and FcγRI (CD64) on THP-1 cells. Isotype control staining is shown as light gray histograms. Specific integrin staining is shown as darker gray histograms. […] One representative blot is shown (top), along with quantification of three separate experiments normalized to maximum Syk phosphorylation (bottom). Results are expressed as the mean ± SEM.

[2] = target: T2, integrin β2 cytoplasmic domain : GST-Syk(6-370) (Homo sapiens, UniProt P43405); assay: AlphaScreen of integrin β2 cytoplasmic domain binding to Syk; settings: read-out: antagonist activity against β2 (value without measure name), AlphaScreen
T2 construct: made in house; host or cells: E. coli BL21(DE3)
Procedure: as §1, §2

[3] = tested on: Pyk-2 phosphorylation in THP-1 cells; assay: Integrin α4β1-induced phosphorylation of Pyk-2 in THP-1 cells plated on CS-1; format: cell-based, human; settings: 100 µM loaded by glycerol shock
Procedure: Syk phosphorylation assays were performed by immobilizing vascular cell adhesion molecule-1 (VCAM)-1 (3 ug/ml), CS-1-BSA (10 ug/ml), or specific monoclonal antibodies (anti-FcγRI mAb 276426, anti-α4β1 mAb 19H8, anti-β2 mAb 76C3, anti-αvβ3 mAb LM609 all at 5 ug/ml) overnight at 4°C in Tris-HCl pH 7.5, 150 mM NaCl, in 6-well plates (non-tissue culture treated, Becton Dickenson, cat# BD351146). Plates were then blocked with BSA (2% w/v) for 1 h at room temperature. […] After electrophoresis, proteins were transferred to nitrocellulose for 1 h 100 V room temperature, blocked in 5% non-fat milk in TBS-T, and probed with the indicated primary antibody at 1:1,000 overnight at 4°C, followed by species-appropriate HRP secondary antibody (Southern Biotech) at 1:5,000 (30 min at room temperature), and detected using Pierce West Pico (Thermo Scientific cat# 34580). […]
Figure 6 Selective inhibition of integrin signaling by ceftazidime. […] Data are expressed as mean ± range from duplicate determinations. […] Kinase activity is expressed as percent of maximum signal. Data are expressed as mean ± SEM (n = 3). **p < 0.01 (D) Selective effects of ceftazidime on integrin signaling. […] Phosphorylation of Syk (left and right panel) and Pyk-2 (center panel) was analyzed by immunoprecipitation and western blot. […] Results are expressed as the mean ± SEM. […]

- IC50 [1]: 1620 ± 410 nM
- IC50 [2]: 1530 ± 210 nM
SMILES: CC(C)(O/N=C(\C(=O)N[C@@H]1C(=O)N2C(C(=O)[O-])=C(C[n+]3ccccc3)CS[C@H]12)c1csc(N)n1)C(=O)O [ceftazidime]
- integrin α4β1 induced phosphorylation of Pyk-2 [3]: inhibited
